This assay has as its target Phosphatidylinositol 3-kinase catalytic subunit type 3 (Homo sapiens, UniProt Q8NEB9). Kind of assay: Biochemical Assay for VPS34. How it is done:
Activity of VPS34 kinase was determined using an ADP-Glo kinase activity assay (Promega Corp). Assays were conducted in 384-well plates (5 μL assay volume) using 25 nM VPS34 (ThermoFisher Scientific), […] PI:3PS Lipid Kinase Substrate (Promega Corp.), and 1 mM ATP in kinase buffer. Inhibition of VPS34 was measured by adding serial diluted test compound (final assay concentration of 0.1% DMSO) followed by a 1-hour incubation at 37° C. ADP-Glo reagent was then added […] followed by a 40 min incubation at rt. Kinase detection reagent was then added […] and followed by a 60 min incubation at rt. Luminescence was then detected. The RLU at each compound concentration of was converted to percent inhibition using controls (i.e., reaction with no test compound and reaction with a known inhibitor) and IC50 values were calculated by fitting a four-parameter sigmoidal curve to the data using GeneData Screener software.

Structures are written as SMILES.

Usually IC50 stands for the concentration at which inhibition is half-maximal. A higher IC50 goes with a need for much substance.

Chain of Phosphatidylinositol 3-kinase catalytic subunit type 3 (Q8NEB9 whole entry): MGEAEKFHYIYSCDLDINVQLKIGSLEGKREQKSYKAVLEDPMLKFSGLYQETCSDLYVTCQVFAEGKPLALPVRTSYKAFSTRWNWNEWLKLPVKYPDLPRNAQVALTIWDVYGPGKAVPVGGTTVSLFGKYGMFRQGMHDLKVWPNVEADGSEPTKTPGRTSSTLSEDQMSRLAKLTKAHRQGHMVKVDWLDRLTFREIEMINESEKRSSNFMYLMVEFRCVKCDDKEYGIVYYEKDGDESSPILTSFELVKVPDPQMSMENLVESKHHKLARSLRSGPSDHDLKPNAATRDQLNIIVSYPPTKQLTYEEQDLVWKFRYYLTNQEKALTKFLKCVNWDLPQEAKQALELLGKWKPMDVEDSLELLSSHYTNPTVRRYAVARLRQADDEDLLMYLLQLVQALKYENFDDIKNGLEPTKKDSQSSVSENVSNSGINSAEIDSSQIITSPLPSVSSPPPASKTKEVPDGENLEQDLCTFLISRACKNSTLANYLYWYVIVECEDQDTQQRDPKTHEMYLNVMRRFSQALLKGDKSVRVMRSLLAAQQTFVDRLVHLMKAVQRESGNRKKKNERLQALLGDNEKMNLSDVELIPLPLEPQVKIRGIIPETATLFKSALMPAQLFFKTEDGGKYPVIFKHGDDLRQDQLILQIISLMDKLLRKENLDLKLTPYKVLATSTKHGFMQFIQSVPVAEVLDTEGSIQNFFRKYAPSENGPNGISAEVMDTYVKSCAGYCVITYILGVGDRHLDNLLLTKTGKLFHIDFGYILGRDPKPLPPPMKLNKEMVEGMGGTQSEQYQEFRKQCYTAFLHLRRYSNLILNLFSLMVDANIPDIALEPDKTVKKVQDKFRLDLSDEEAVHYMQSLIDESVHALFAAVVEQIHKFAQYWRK

`COC(=O)Nc1cc(-c2cc(-c3cnccc3C(F)(F)F)[nH]c(=O)c2)c(C)cn1` [US20250236609, Example 4] returned a half-inhibitory concentration (IC50) of under 0.1 µM.

These data come from BindingDB's records for patent US20250236609 (Deciphera Pharmaceuticals, 2025).
